Assay results published in the CheMixHub viscosity set.
± gives the uncertainty stated by the source.

Assay: xn = mol fraction of the nth substance listed

O=CO + c1ccncc1
viscosity [mPa·s], 101 kPa
Conditions | 298.15 K | 323.15 K
x1 = 0.1605 | 0.9921 ± 0.026 | 0.7018 ± 0.019
x1 = 0.3041 | 1.235 ± 0.033 | 0.8411 ± 0.022
x1 = 0.4426 | 1.783 ± 0.047 | 1.154 ± 0.031
x1 = 0.5254 | 2.414 ± 0.064 | 1.515 ± 0.04
x1 = 0.6438 | 4.255 ± 0.11 | 2.347 ± 0.063
x1 = 0.7065 | 5.476 ± 0.15 | 2.846 ± 0.077
x1 = 0.7478 | 6.13 ± 0.17 | 3.143 ± 0.085
x1 = 0.7762 | 6.161 ± 0.17 | 3.202 ± 0.087
x1 = 0.8243 | 5.312 ± 0.14 | 2.873 ± 0.077
x1 = 0.8859 | 3.778 ± 0.1 | 2.192 ± 0.058
x1 = 0.9381 | 2.657 ± 0.071 | 1.616 ± 0.043

CC(Cl)(Cl)Cl + Cc1ccc(C)cc1
303.15 K, 101 kPa
Conditions | viscosity [mPa·s]
x1 = 0.1341 | 0.6079 ± 0.016
x1 = 0.2166 | 0.632 ± 0.016
x1 = 0.3072 | 0.6566 ± 0.017
x1 = 0.4291 | 0.6846 ± 0.018
x1 = 0.5112 | 0.6988 ± 0.018
x1 = 0.6202 | 0.7113 ± 0.018
x1 = 0.69 | 0.7164 ± 0.018
x1 = 0.7824 | 0.7206 ± 0.019
x1 = 0.8403 | 0.7216 ± 0.019
x1 = 0.9044 | 0.7226 ± 0.019

CCCCCBr + c1ccccc1
308.15 K, 101 kPa
Conditions | viscosity [mPa·s]
x2 = 0.0961 | 0.6279 ± 0.0051
x2 = 0.2061 | 0.6028 ± 0.0048
x2 = 0.2972 | 0.5854 ± 0.0045
x2 = 0.3978 | 0.5636 ± 0.0043
x2 = 0.4978 | 0.5452 ± 0.0041
x2 = 0.5868 | 0.5316 ± 0.0039
x2 = 0.7022 | 0.5149 ± 0.0037
x2 = 0.8752 | 0.5028 ± 0.0036
x2 = 0.9275 | 0.503 ± 0.0036

CC(Cl)(Cl)Cl + CCOC(C)=O
Conditions | viscosity [mPa·s]
298.15 K, 101.33 kPa, x1 = 0.098 | 0.4485 ± 0.0048
298.15 K, 101.33 kPa, x1 = 0.197 | 0.4712 ± 0.005
298.15 K, 101.33 kPa, x1 = 0.297 | 0.4964 ± 0.0052
298.15 K, 101.33 kPa, x1 = 0.398 | 0.5244 ± 0.0055
298.15 K, 101.33 kPa, x1 = 0.498 | 0.5554 ± 0.0057
298.15 K, 101.33 kPa, x1 = 0.598 | 0.5901 ± 0.006
298.15 K, 101.33 kPa, x1 = 0.699 | 0.6295 ± 0.0064
298.15 K, 101.33 kPa, x1 = 0.771 | 0.665 ± 0.0067
298.15 K, 101.33 kPa, x1 = 0.885 | 0.7192 ± 0.0072
303.15 K, 101.3 kPa, x2 = 0.1006 | 0.6668 ± 0.0059
303.15 K, 101.3 kPa, x2 = 0.1989 | 0.6158 ± 0.0057
303.15 K, 101.3 kPa, x2 = 0.2986 | 0.5731 ± 0.0055
303.15 K, 101.3 kPa, x2 = 0.4038 | 0.5366 ± 0.0054
303.15 K, 101.3 kPa, x2 = 0.4965 | 0.5101 ± 0.0053
303.15 K, 101.3 kPa, x2 = 0.5999 | 0.4831 ± 0.0052
303.15 K, 101.3 kPa, x2 = 0.7003 | 0.4579 ± 0.0051
303.15 K, 101.3 kPa, x2 = 0.7974 | 0.4366 ± 0.005
303.15 K, 101.3 kPa, x2 = 0.9008 | 0.4167 ± 0.0049

C1CCOCC1 + CCCCO
viscosity [mPa·s], 101.3 kPa
Conditions | x1 = 0.0478 | x1 = 0.0969 | x1 = 0.1984 | x1 = 0.288 | x1 = 0.3973 | x1 = 0.5005 | x1 = 0.6788 | x1 = 0.7023 | x1 = 0.8041 | x1 = 0.9024
298.15 K | 2.294 ± 0.029 | 2.056 ± 0.026 | 1.662 ± 0.021 | 1.426 ± 0.018 | 1.222 ± 0.016 | 1.087 ± 0.014 | 0.931 ± 0.013 | 0.9162 ± 0.012 | 0.8645 ± 0.012 | 0.8316 ± 0.011
313.15 K | 1.633 ± 0.021 | 1.483 ± 0.019 | 1.255 ± 0.016 | 1.086 ± 0.014 | 0.9459 ± 0.013 | 0.8494 ± 0.011 | 0.7345 ± 0.01 | 0.7252 ± 0.01 | 0.6832 ± 0.0096 | 0.6584 ± 0.0093

O=C(O)CC(O)(CC(=O)O)C(=O)O + C[N+](C)(C)CCO.[Cl-]
viscosity [mPa·s], x2 = 0.5
Conditions | 298 K | 303 K | 313 K | 323 K
101 kPa | – | 2085000 ± 590000 | 510000 ± 120000 | –
101.3 kPa | 14480 ± 1200 | – | – | 2242 ± 140

CC(Cl)(Cl)Cl + CCCCCC
303.15 K, 101 kPa
Conditions | viscosity [mPa·s]
x1 = 0.1033 | 0.3166 ± 0.0083
x1 = 0.2726 | 0.3777 ± 0.0098
x1 = 0.3375 | 0.4016 ± 0.01
x1 = 0.4011 | 0.4253 ± 0.011
x1 = 0.5547 | 0.4864 ± 0.013
x1 = 0.5981 | 0.5047 ± 0.013
x1 = 0.6578 | 0.5318 ± 0.014
x1 = 0.7595 | 0.582 ± 0.015
x1 = 0.8388 | 0.6246 ± 0.016
x1 = 0.9378 | 0.6833 ± 0.018

CC(Cl)(Cl)Cl + CC#N
303.15 K, 101.32 kPa
Conditions | viscosity [mPa·s]
x2 = 0.1263 | 0.6581 ± 0.0083
x2 = 0.2051 | 0.6229 ± 0.008
x2 = 0.2652 | 0.5971 ± 0.0078
x2 = 0.3855 | 0.5476 ± 0.0074
x2 = 0.478 | 0.5114 ± 0.0071
x2 = 0.6358 | 0.4505 ± 0.0066
x2 = 0.6802 | 0.4339 ± 0.0065
x2 = 0.7999 | 0.3906 ± 0.0061
x2 = 0.8673 | 0.3675 ± 0.0059
x2 = 0.9074 | 0.3539 ± 0.0058

CC(Cl)(Cl)Cl + CCCCCCCC
303.15 K, 101 kPa
Conditions | viscosity [mPa·s]
x1 = 0.1465 | 0.4786 ± 0.012
x1 = 0.2573 | 0.4863 ± 0.013
x1 = 0.3398 | 0.495 ± 0.013
x1 = 0.4029 | 0.503 ± 0.013
x1 = 0.4971 | 0.5195 ± 0.013
x1 = 0.588 | 0.5408 ± 0.014
x1 = 0.6617 | 0.5623 ± 0.015
x1 = 0.7875 | 0.6103 ± 0.016
x1 = 0.8238 | 0.6267 ± 0.016
x1 = 0.9164 | 0.6735 ± 0.017
